The text below walks through data of patent US20170157001A1, “Compositions Comprising Strontium and Uses Thereof in the Treatment or Prevention of Gingivitis, Periodontitis, Periodontitis as a Manifestation of Systemic Diseases, and Necrotizing Periodontal Diseases” (priority 2006, published 2017).

The conditions of data set [1]: relative to cholecalciferol itself; cited from earlier work.
Data set [2] can be described thus: Determination of solubility velocity by ICP-MS in 0.1 M hydrochloride solution. Conditions: in hydrochloride 0.1 M, 37° C., 84Sr signal.
Protocol: Determination of solubility velocity by Inductively Coupled Plasma-Mass Spectrometry (ICP-MS)
The solubility is measures as strontium signals over time using ICP-MS. Using this technique it is possible to follow multiple isotopes of the element, here, ^84Sr, ^86Sr, ^87Sr and ^88Sr.
A hydrochloride solution (0.1 M) was added to the sample and the sample then immediately enters, by means of a peristaltic pump, the atomizer of the ICP-MS apparatus. The pump speed was 4.4 ml/min. […] The temperature of the HCl solution was 37° C.
The solubility velocity of the compound is obtained by analysing the slopes of the front curves. The first curve represents the experiment and the second curve the apparatus, thus the difference between the slopes of the two curves are used to calculate the solubility velocity by division with the top value.

Turning to `C=C1CC[C@H](O)C/C1=C/C=C1\CCC[C@]2(C)[C@@H]([C@H](C)CCCC(C)(C)O)CC[C@@H]12` [25-hydroxycholecalciferol], the “times more effective in terms of bioavailability than cholecalciferol” value in data set [1] was “five”.
With `C=C1/C(=C\C=C2/CCC[C@]3(C)[C@@H]([C@H](C)CCCC(C)(C)O)CC[C@@H]23)C[C@@H](O)C[C@@H]1O` [1,25 dihydroxycholecalciferol], the “times more effective in terms of bioavailability than cholecalciferol” value in data set [1] is reported as “ten”.
As for `[Cl-].[Cl-].[Sr+2]` [strontium chloride], the solubility velocity result in data set [2] is “very high”.
